Measured values: patent publication US9670162B2, “Mitochondrial aldehyde dehyrogenase-2 modulators and methods of use thereof” (The Board of Trustees of the Leland Stanford Junior …, priority 2013, dated 2017)

Test: MLM stability T1/2
Format: in vitro ADME
Details: mouse, liver microsomes
Description: In vitro ADMET of compounds of the present disclosure was carried out according to known methods in the art. Below are data for certain compounds of the present disclosure.

half-life: 2.08 min
Compound: COc1ccc(CNC(=O)c2c(Cl)ccnc2OCC2CC2)cc1F [Compound 161]
